Laboratory results published in patent US8420574B2, “Plant growth enhancement with combinations of PESA and herbicides” (Valent BioSciences Corporation, priority 2009, dated 2013).

What was measured:
Assay type in all cases: in vivo
cotton = test: Pouch assay; root and shoot length of cotton; details: 0 ppm PESA salt; for Shoot Length: untreated 4.7; for Root Length: untreated 7.7
Procedure: (§1) Seeds were placed in germination pouches consisting of germination paper hydrated with sterile water that was an insert in a gas-permeable 16×14 cm plastic pouch (CYG Pouch; Mega International, St. Paul, Minn.). In these examples, in pouch solution evaluation, PESA sodium salt or other active ingredients were added to the sterile water in the pouch. The pouches were arranged in a completely randomized block design in growth racks and placed in 19-liter polycarbonate food storage containers (Rubbermaid Commercial Products, Winchester, Va.). The sealed containers were held in an upright growth cabinet maintained at 25 C with a 12 hour light: 12 hour dark photoperiod. After 6 days, the containers were removed from the growth cabinet, and the lengths of the roots and shoot were measured.

rice cv. Cheniere [1] = test: Pouch assay, PESA salt and herbicide added to the pouch solution; root and shoot length
Procedure: Alternatively, PESA salt and herbicides may be added separately to the sterile water in the growth pouch.
as §1

rice cv. Nipponbare = test: Hydroponic assay; total root length and shoot length; details: for Shoot Length / Total Root Length: 0 ppm PESA salt
Procedure: Where hydroponically-grown rice was used in studies, the seeds were pre-incubated in water at 30 C for 2 days to stimulate germination. Three seeds were placed on a float and cultivated hydroponically in a test tube (25 mm×200 mm), which contained 50 ml of Kimura B nutrient solution at ⅛th strength supplemented with herbicides and PESA sodium salt. The exposure of the roots to the light was prevented by wrapping the tubes with aluminum foil. The rice seedlings were incubated in a growth cabinet at 25 C under continuous light for 14 days, and the total root length and shoot length were measured. Total root length (cm) was the root length/plant determined following scanning with WinRhizo software (Regent Instruments INC, Toronto, Canada).

rice cv. Cheniere [2] = test: Emergence of seed-treated rice seeded onto soil previously treated with herbicide; details: no seed treatment (Control), untreated 90
Source text: Seed was sieved with a screen of mesh size appropriate to remove broken seeds and small trash. Cracked or otherwise damaged seeds were removed. The seed was well mixed, and 50 g samples were weighed into small plastic trays. […] A fungicide (Maxim XL; Syngenta Agricultural Products, Greensboro, N.C.), a polymeric binder (CF-Clear; Becker-Underwood, Ames, Iowa), and a colorant (Color Coat Red; Becker-Underwood, Ames, Iowa) were also included in the slurry at label rates. A small aliquot of this slurry was applied to the seed using the Hege 11 coater (Wintersteiger, Salt Lake City, Utah) with a six-inch bowl at a slurry rate of 30 ounces per 100 lbs of seed. The slurry was deposited drop-wise on the spinning disk atomizer using a syringe.
Rice cv. […] It was then seeded onto soil which was previously sprayed with the pendimethalin herbicide Prowl H2O® (BASF Agricultural Products, Research Triangle Park, N.C.).
After seed treatment, rice was seeded into soil previously treated with the dithiopyr herbicide Dimension®.
Rice seed treated with PESA was tested for its ability to protect rice from the herbicide Roundup WeatherMax® (glyphosate). After seed treatment, rice was seeded into soil previously treated with the Roundup WeatherMax®.

[3] = 10 ppm dithiopyr, treatment none (Control), 30 ppm PESA salt, 10 ppm GA3 or both, untreated 3.9
[4] = 10 ppm dithiopyr, treatment none (Control), 30 ppm PESA salt, 10 ppm GA3 or both, untreated 9.5
[5] = 50 ppm pendimethalin, treatment none (Control), 30 ppm PESA salt, 10 ppm GA3 or both, untreated 3.9
[6] = 50 ppm pendimethalin, treatment none (Control), 30 ppm PESA salt, 10 ppm GA3 or both, untreated 9.7
[7] = pendimethalin (Table 4, 50 ppm)

COc1nc(C)nc(NC(=O)NS(=O)(=O)c2ccccc2Cl)n1 [Chlorsulfuron, chlorsulfuron, reference compound]
Shoot Length (cotton; 1 ppm chlorsulfuron): 2.3 cm | Root Length (cotton; 1 ppm chlorsulfuron): 2.1 cm | Shoot Length (cotton; 10 ppm chlorsulfuron): 1.5 cm | Root Length (cotton; 10 ppm chlorsulfuron): 1.8 cm | Shoot Length (cotton; 100 ppm chlorsulfuron): 1.7 cm | Root Length (cotton; 100 ppm chlorsulfuron): 1.9 cm | Shoot Length (rice cv. Cheniere [1]; 10 ppm chlorsulfuron, 0 ppm PESA salt, untreated 4.8): 0.9 cm | Root Length (rice cv. Cheniere [1]; 10 ppm chlorsulfuron, 0 ppm PESA salt, untreated 11.6): 0.6 cm | Shoot Length (rice cv. Cheniere [1]; 100 ppm chlorsulfuron, 0 ppm PESA salt, untreated 4.8): 0.7 cm | Root Length (rice cv. Cheniere [1]; 100 ppm chlorsulfuron, 0 ppm PESA salt, untreated 11.6): 0.3 cm

C#CCOC(=O)[C@@H](C)Oc1ccc(Oc2ncc(Cl)cc2F)cc1 [Clodinafop-propargyl, clodinafop-propargyl, reference compound]
Shoot Length (rice cv. Nipponbare; 0.3 ppm clodinafop-propargyl, untreated 10.6): 10.2 cm | Total Root Length (rice cv. Nipponbare; 0.3 ppm clodinafop-propargyl, untreated 52.1): 45.3 cm | Shoot Length (rice cv. Nipponbare; 1 ppm clodinafop-propargyl, untreated 10.6): 10.9 cm | Total Root Length (rice cv. Nipponbare; 1 ppm clodinafop-propargyl, untreated 52.1): 11.5 cm | root length reduced by (rice cv. Nipponbare; 3 ppm clodinafop-propargyl): 91% | Shoot Length (rice cv. Nipponbare; 3 ppm clodinafop-propargyl, untreated 10.6): 7.5 cm | Total Root Length (rice cv. Nipponbare; 3 ppm clodinafop-propargyl, untreated 52.1): 4.7 cm

COc1c(Cl)ccc(Cl)c1C(=O)O [Dicamba, dicamba, reference compound]
Shoot Length (rice cv. Nipponbare; 0.01 ppm dicamba, untreated 11.4): 10.6 cm | Total Root Length (rice cv. Nipponbare; 0.01 ppm dicamba, untreated 44.9): 21.3 cm | root length reduced by (rice cv. Nipponbare; 0.1 ppm dicamba): 87% | shoot length reduced by (rice cv. Nipponbare; 0.1 ppm dicamba): 61% | Shoot Length (rice cv. Nipponbare; 0.1 ppm dicamba, untreated 11.4): 4.5 cm | Total Root Length (rice cv. Nipponbare; 0.1 ppm dicamba, untreated 44.9): 6.0 cm | Shoot Length (rice cv. Nipponbare; 1 ppm dicamba, untreated 11.4): 3.8 cm | Total Root Length (rice cv. Nipponbare; 1 ppm dicamba, untreated 44.9): 0.0 cm

CSC(=O)c1c(C(F)F)nc(C(F)(F)F)c(C(=O)SC)c1CC(C)C [Dithiopyr, dithiopyr, reference compound]
Shoot Length (rice cv. Cheniere [1]; 1 ppm dithiopyr, 0 ppm PESA salt, untreated 4.0): 4.3 cm | Root Length (rice cv. Cheniere [1]; 1 ppm dithiopyr, 0 ppm PESA salt, untreated 9.5): 10.0 cm | root length reduced by (rice cv. Cheniere [1]; 10 ppm dithiopyr): 30% | Shoot Length (rice cv. Cheniere [1]; 10 ppm dithiopyr, 0 ppm PESA salt, untreated 4.0): 3.5 cm | Root Length (rice cv. Cheniere [1]; 10 ppm dithiopyr, 0 ppm PESA salt, untreated 9.5): 6.7 cm | Shoot Length (rice cv. Cheniere [1]; [3]): 3.0 cm | Root Length (rice cv. Cheniere [1]; [4]): 4.1 cm | Shoot Length (rice cv. Cheniere [1]; 100 ppm dithiopyr, 0 ppm PESA salt, untreated 4.0): 1.2 cm | Root Length (rice cv. Cheniere [1]; 100 ppm dithiopyr, 0 ppm PESA salt, untreated 9.5): 0.4 cm

C#CCN1C(=O)COc2cc(F)c(N3C(=O)C4=C(CCCC4)C3=O)cc21 [Flumioxazin, flumioxazin, reference compound]
Shoot Length (rice cv. Nipponbare; 0.1 ppm flumioxazin, untreated 10.6): 10.7 cm | Total Root Length (rice cv. Nipponbare; 0.1 ppm flumioxazin, untreated 52.1): 41.5 cm | Shoot Length (rice cv. Nipponbare; 0.3 ppm flumioxazin, untreated 10.6): 11.0 cm | Total Root Length (rice cv. Nipponbare; 0.3 ppm flumioxazin, untreated 52.1): 64.1 cm | root length reduced by (rice cv. Nipponbare; 1 ppm flumioxazin): 28% | shoot length reduced by (rice cv. Nipponbare; 1 ppm flumioxazin): 64% | Shoot Length (rice cv. Nipponbare; 1 ppm flumioxazin, untreated 10.6): 3.8 cm | Total Root Length (rice cv. Nipponbare; 1 ppm flumioxazin, untreated 52.1): 14.5 cm | Shoot Length (rice cv. Nipponbare; 3 ppm flumioxazin, untreated 10.6): 5.9 cm | Total Root Length (rice cv. Nipponbare; 3 ppm flumioxazin, untreated 52.1): 15.7 cm

C=C1C[C@]23C[C@@]1(O)CC[C@H]2[C@@]12C=C[C@H](O)[C@@](C)(C(=O)O1)[C@H]2[C@@H]3C(=O)O [GA3, gibberellic acid, reference compound]
Shoot Length (rice cv. Cheniere [1]; 0 ppm pendimethalin, treatment 30 ppm PESA salt, 10 ppm GA3 or both, untreated 3.9): 7.7 cm | Root Length (rice cv. Cheniere [1]; 0 ppm pendimethalin, treatment 30 ppm PESA salt, 10 ppm GA3 or both, untreated 9.7): 10.8 cm | Shoot Length (rice cv. Cheniere [1]; [3]): 5.6 cm | Root Length (rice cv. Cheniere [1]; [4]): 4.7 cm | Shoot Length (rice cv. Cheniere [1]; [5]): 1.5 cm | Root Length (rice cv. Cheniere [1]; [6]): 2.7 cm | protection of roots and shoots from pendimethalin (rice cv. Cheniere [1]; in the growth medium with pendimethalin (Table 4)): only marginally effective at protecting the roots and shoots from pendimethalin | Shoot Length (rice cv. Cheniere [1]; no dithiopyr (Control), treatment 30 ppm PESA salt, 10 ppm GA3 or both, untreated 3.9): 7.0 cm | Root Length (rice cv. Cheniere [1]; no dithiopyr (Control), treatment 30 ppm PESA salt, 10 ppm GA3 or both, untreated 9.5): 10.7 cm

O=C(O)CNCP(=O)(O)O [Glyphosate, glyphosate, reference compound]
Percent Emergence at 9 days after planting (rice cv. Cheniere [2]; glyphosate 23 μg/cm2 (Roundup)): 72% | Percent Emergence at 9 days after planting (rice cv. Cheniere [2]; glyphosate 90 μg/cm2 (Roundup)): 12%

COc1cc(OC)nc(NC(=O)NS(=O)(=O)c2c(Cl)nc3ccccn23)n1 [Imazosulfuron, imazosulfuron, reference compound]
Shoot Length (rice cv. Nipponbare; 0.01 ppm imazosulfuron, untreated 11.4): 12.6 cm | Total Root Length (rice cv. Nipponbare; 0.01 ppm imazosulfuron, untreated 44.9): 41.4 cm | root length reduced by (rice cv. Nipponbare; 0.1 ppm imazosulfuron): 49% | Shoot Length (rice cv. Nipponbare; 0.1 ppm imazosulfuron, untreated 11.4): 8.6 cm | Total Root Length (rice cv. Nipponbare; 0.1 ppm imazosulfuron, untreated 44.9): 23.1 cm | shoot length reduced by (rice cv. Nipponbare; 1 ppm imazosulfuron): 86% | Shoot Length (rice cv. Nipponbare; 1 ppm imazosulfuron, untreated 11.4): 1.6 cm | Total Root Length (rice cv. Nipponbare; 1 ppm imazosulfuron, untreated 44.9): 4.9 cm

CCc1cccc(C)c1N(C(=O)CCl)C(C)COC (stereo not drawn) [Metolachlor, metolachlor, reference compound]
Shoot Length (rice cv. Cheniere [1]; 1 ppm metolachlor, 0 ppm PESA salt, untreated 3.7): 3.6 cm | Root Length (rice cv. Cheniere [1]; 1 ppm metolachlor, 0 ppm PESA salt, untreated 9.3): 8.2 cm | decrease in root length (rice cv. Cheniere [1]; 10 ppm metolachlor): 60% | Shoot Length (rice cv. Cheniere [1]; 10 ppm metolachlor, 0 ppm PESA salt, untreated 3.7): 0.9 cm | Root Length (rice cv. Cheniere [1]; 10 ppm metolachlor, 0 ppm PESA salt, untreated 9.3): 3.7 cm | Shoot Length (rice cv. Cheniere [1]; 100 ppm metolachlor, 0 ppm PESA salt, untreated 3.7): 0.6 cm | Root Length (rice cv. Cheniere [1]; 100 ppm metolachlor, 0 ppm PESA salt, untreated 9.3): 1.6 cm

CCC(CC)Nc1c([N+](=O)[O-])cc(C)c(C)c1[N+](=O)[O-] [Pendimethalin, pendimethalin, reference compound]
Shoot Length (rice cv. Cheniere [1]; 10 ppm pendimethalin, 0 ppm PESA salt, untreated 3.4): 3.4 cm | Root Length (rice cv. Cheniere [1]; 10 ppm pendimethalin, 0 ppm PESA salt, untreated 8.5): 8.3 cm | Shoot Length (rice cv. Cheniere [1]; [5]): 1.3 cm | Root Length (rice cv. Cheniere [1]; [6]): 2.9 cm | root length reduced by (rice cv. Cheniere [1]; 100 ppm pendimethalin): 70% | Shoot Length (rice cv. Cheniere [1]; 100 ppm pendimethalin, 0 ppm PESA salt, untreated 3.4): 1.0 cm | Root Length (rice cv. Cheniere [1]; 100 ppm pendimethalin, 0 ppm PESA salt, untreated 8.5): 2.5 cm | Shoot Length (rice cv. Cheniere [1]; 500 ppm pendimethalin, 0 ppm PESA salt, untreated 3.4): 0.5 cm | Root Length (rice cv. Cheniere [1]; 500 ppm pendimethalin, 0 ppm PESA salt, untreated 8.5): 0.5 cm | root length decreased by (rice cv. Cheniere [1]; [7]): 75% | shoot length decreased by (rice cv. Cheniere [1]; [7]): 67%
